Results on 26 compounds are retold here after US9499551B2, “Substituted pyrrolo[2,3-b]pyridines for treating cancer or inflammatory diseases” (Confluence Life Sciences, Inc., priority 2014, dated 2016).

The structures appear in SMILES notation.

Assay [1] has as its system IL-6 Production in Human Peripheral Blood Mononuclear Cells (PBMC). In words: LPS stimulated IL-6 production in PBMC cells. The assay is classed as cell-based. As to conditions: read-out: IL-6 Production Inhibition IC50. On the procedure: LPS Stimulated IL-6 Production in PBMC Cells:
Lipopolysaccharide (LPS) stimulated IL-6 Production in Human Peripheral Blood Mononuclear Cells (PBMC): The cellular efficacy of compound candidates is determined using peripheral blood mononuclear cells purified from human whole blood, based upon the methods of Burnette et al. (2009) Pharmacology, 84:42-60. PBMC produce a number of cytokines (IL6, IL8, IL1β and TNFα) in response to stimulation with LPS. To induce the production of inflammatory mediators, PBMC are plated at a final concentration of 2×10^5 cells/well in a 96 well flat bottom plate in DMEM medium supplemented with 10% fetal bovine serum, 100 units/ml penicillin and 100 μg/ml streptomycin (Gibco BRL Life Technologies). Cells are treated with or without inhibitors for 1-3 hrs then stimulated with 100 ng/ml LPS (serotype 011:B4, Sigma) for an additional 3 hrs at 37° C. with 5% CO2. The supernatants are removed and stored at −20° C. until they are to be assayed. The levels of inflammatory mediators are determined using commercial MSD cytokine kits (Meso Scale Discovery) as per the manufacturer's instructions. Standard curves are based on 7 steps of 4× serial dilutions, with a wide dynamic range of 10000 pg/ml to 2.4 pg/ml, and a blank. Lower limit of detection (LLOD) is calculated at the commonly used 3× the standard deviation of the blank.

In another assay the target is T1, TAK1-TAB1 (Homo sapiens, UniProt O43318).
T1 sequence (O43318 with tags, fused parts or gaps limits assumed): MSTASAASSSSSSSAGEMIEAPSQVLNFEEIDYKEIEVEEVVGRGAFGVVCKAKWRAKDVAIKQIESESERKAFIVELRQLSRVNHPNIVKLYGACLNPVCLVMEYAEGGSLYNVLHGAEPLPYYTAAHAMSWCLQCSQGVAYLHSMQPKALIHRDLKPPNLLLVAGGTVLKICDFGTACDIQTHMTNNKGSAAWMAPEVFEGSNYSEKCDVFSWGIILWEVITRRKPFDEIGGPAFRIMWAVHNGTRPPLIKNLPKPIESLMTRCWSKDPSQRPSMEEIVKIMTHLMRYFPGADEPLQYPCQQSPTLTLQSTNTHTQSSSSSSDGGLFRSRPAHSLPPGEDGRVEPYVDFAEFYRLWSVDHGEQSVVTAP
In words: TAK1-TAB1 binding inhibitory potency (LanthaScreen competitive binding assay, kinase tracer-236). The note with it: 10 nM TAK1-TAB1, 100 nM kinase tracer-236; read-out: TAK1-Tab Inhibition IC50. An excerpt:
TAK1-TAB1 Binding Inhibitory Potency:
The ability of candidate compounds to interact with TAK1-TAB1 is quantitated by a competitive binding assay using the LanthaScreen technology developed by Life Technologies. This assay is based on the binding of a proprietary, Alexa Fluor® 647-labeled, ATP-competitive kinase inhibitor (kinase tracer-236) to the TAK1-TAB1 construct in presence of a europium-conjugated antibody, resulting in a FRET (fluorescence resonance energy transfer) signal. Displacement of the kinase tracer by compound results in a lower emission ratio upon excitation of the europium chelate. Candidate compounds are designed as potential irreversible inhibitors of TAK1-TAB1, capable of ligating to an active site cysteine residue. The time dependent nature of irreversible inhibition is investigated by performing the binding assay with and without a pre-incubation of compound and TAK1-TAB1.
The inhibitory potency of candidate compounds is measured in 20 mM HEPES pH 7.5, 10 mM MgCl2, 0.01% BSA, 0.0005% Tween-20, and 2% DMSO in the presence of 10 nM TAK1-TAB1, 2 nM Eu-anti-his antibody, and 100 nM kinase tracer-236 using a 384-well plate format. Background signal is defined in the absence of TAK1-TAB1 and uninhibited signal is defined in the presence of vehicle (2% DMSO) alone. Compounds were evaluated in an 11 point dose-response ranging from 20 μM to 0.34 nM. The binding assays are performed under two conditions to evaluate time dependence of inhibition. For the pre-incubation assay, TAK1-TAB1 and Eu-anti-his antibody are preincubated with compound or vehicle for two hours prior to the addition of kinase tracer. The non-preincubated assay is run in which TAK1-TAB1 and Eu-anti-his antibody are added to a mixture of compound and kinase tracer. IC50 values of compounds are determined using a 4 parameter logistical fit of emission ratio as a function of the concentration of compound. […]
In general terms: TR-FRET usually uses a lanthanide donor and a delayed reading to cut background.

What is called IC50 is the concentration that gives 50% inhibition. With `CC(C)Nc1cnc2[nH]cc(/C=C/C(N)=O)c2n1` [Example 10, 3-(2-Isopropylamino-5H-pyrrolo[2,3-b]pyrazin-7-yl)-acrylamide], the IC50 (in assay [1]; on TAK1-TAB1) was no more than 1 µM throughout. Turning to `C[C@@H](O)CNC(=O)c1ccc(-c2cnc3[nH]cc(/C=C/C(N)=O)c3c2)cc1` [Example 294, (R,E)-4-(3-(3-amino-3-oxoprop-1-en-1-yl)-1H-pyrrolo[2,3-b]pyridin-5-yl)-N-(2-hydroxypropyl) benzamide], the IC50 in assay [1] is greater than 1 µM; on TAK1-TAB1, no more than 1 µM. As to `CC(C)(O)CN1CCN(c2cnc3[nH]cc(/C=C/C(N)=O)c3c2)CC1` [Example 289, (E)-3-(5-(4-(2-hydroxy-2-methylpropyl)piperazin-1-yl)-1H-pyrrolo[2,3-b]pyridin-3-yl)acrylamide], the IC50 is greater than 1 µM in assay [1] and no more than 1 µM at TAK1-TAB1. Take `COc1cc(OC2CCCC2)cc(-c2cnc3[nH]cc(/C=C/C(N)=O)c3c2)c1` [Example 257, (E)-3-(5-(3-(cyclopentyloxy)-5-methoxyphenyl)-1H-pyrrolo[2,3-b]pyridin-3-yl)acrylamide]: the IC50 (in assay [1]; on TAK1-TAB1) was no more than 1 µM throughout. Take `CC(C)Oc1cc(-c2cnc3[nH]cc(/C=C/C(N)=O)c3c2)cc(C(F)(F)F)n1` [Example 272, (E)-3-(5-(2-isopropoxy-6-(trifluoromethyl)pyridin-4-yl)-1H-pyrrolo[2,3-b]pyridin-3-yl)acrylamide]: the 50% inhibitory concentration (IC50) (in assay [1]; at TAK1-TAB1) was no more than 1 µM each time. Turning to `NC(=O)/C=C/c1c[nH]c2ncc(-c3ccncc3)cc12` [Example 259, (E)-3-(5-(pyridin-4-yl)-1H-pyrrolo[2,3-b]pyridin-3-yl)acrylamide], the IC50 (in assay [1]; at TAK1-TAB1) was no more than 1 µM throughout.

With `CC1CCN(C(=O)c2ccc(-c3cnc4[nH]cc(/C=C/C(N)=O)c4c3)cn2)CC1` [Example 265, (E)-3-(5-(6-(4-methylpiperidine-1-carbonyl)pyridin-3-yl)-1H-pyrrolo[2,3-b]pyridin-3-yl)acrylamide], the values for the IC50 (in assay [1]; on TAK1-TAB1) were greater than 1 µM and no more than 1 µM, respectively. As to `CC(C)C(=O)NC1CN(c2cnc3[nH]cc(/C=C/C(N)=O)c3c2)C1` [Example 283, (E)-3-(5-(3-isobuty-ramidoazetidin-1-yl)-1H-pyrrolo[2,3-b]pyridin-3-yl)acrylamide], the half-maximal inhibitory concentration (IC50) (in assay [1]; at TAK1-TAB1) was no more than 1 µM throughout. In the case of `NC(=O)/C=C/c1c[nH]c2ncc(-c3ccccc3)nc12` [Example 4, (E)-3-(2-Phenyl-5H-pyrrolo[2,3-b]pyrazin-7-yl)acrylamide], the IC50 (in assay [1]; on TAK1-TAB1) was no more than 1 µM each time. As to `NC(=O)/C=C/c1c[nH]c2ncc(N3CC(NC(=O)c4ccccc4)C3)cc12` [Example 298, (E)-N-(1-(3-(3-amino-3-oxoprop-1-en-1-yl)-1H-pyrrolo[2,3-b]pyridin-5-yl)azetidin-3-yl)benzamide], the IC50 (in assay [1]; on TAK1-TAB1) was no more than 1 µM throughout. Consider `N#C/C=C/c1c[nH]c2ncc(N3CCN(C(=O)c4ccccc4)CC3)cc12` [Example 279, (E)-3-(5-(4-benzoylpiperazin-1-yl)-1H-pyrrolo[2,3-b]pyridin-3-yl)acrylonitrile], for which the half-inhibitory concentration (IC50) was greater than 1 µM in assay [1] and no more than 1 µM at TAK1-TAB1.

On to `CC(C)(O)c1ccc(-c2cnc3[nH]cc(/C=C/C(N)=O)c3c2)cc1` [Example 247, (E)-3-(5-(4-(2-hydroxypropan-2-yl)phenyl)-1H-pyrrolo[2,3-b]pyridin-3-yl)acrylamide], for which the IC50 (in assay [1]; on TAK1-TAB1) was no more than 1 µM throughout. For the compound `NC(=O)/C=C/c1c[nH]c2ncc(-c3ccc(C(=O)N4CCCC4)nc3)cc12` [Example 281, (E)-3-(5-(6-(pyrrolidine-1-carbonyl)pyridin-3-yl)-1H-pyrrolo[2,3-b]pyridin-3-yl)acrylamide], the figures for the IC50 (in assay [1]; on TAK1-TAB1) were greater than 1 µM and no more than 1 µM, respectively. `CC(C)(C)c1cc(-c2cnc3[nH]cc(/C=C/C(N)=O)c3c2)cc(C(C)(C)C)c1` [Example 258, (E)-3-(5-(3,5-di-tert-butylphenyl)-1H-pyrrolo[2,3-b]pyridin-3-yl)acrylamide]: the IC50 (in assay [1]; at TAK1-TAB1) was no more than 1 µM in each case. On to `N#C/C(=C\c1c[nH]c2ncc(-c3ccccc3)cc12)C(N)=O` [Example 226, (E)-2-Cyano-3-(5-phenyl-1H-pyrrolo[2,3-b]pyridin-3-yl)acrylamide], for which the 50% inhibitory concentration (IC50) (in assay [1]; at TAK1-TAB1) was no more than 1 µM throughout. On to `NC(=O)/C=C/c1c[nH]c2ncc(Cc3ccccc3)cc12` [Example 39], for which the IC50 (in assay [1]; on TAK1-TAB1) was no more than 1 µM each time. For `CC(=O)/C=C/C(=O)Nc1c[nH]c2ncc(-c3ccccc3)cc12` [Example 240, (E)-4-oxo-N-(5-phenyl-1H-pyrrolo[2,3-b]pyridin-3-yl)pent-2-enamide], the IC50 (in assay [1]; on TAK1-TAB1) was no more than 1 µM in each case. For `CCOCCn1cc(-c2cnc3[nH]cc(/C=C/C(N)=O)c3c2)ccc1=O` [Example 337, (E)-3-(5-(1-(2-ethoxyethyl)-6-oxo-1,6-dihydropyridin-3-yl)-1H-pyrrolo[2,3-b]pyridin-3-yl)acrylamide], the IC50 at TAK1-TAB1 is no more than 1 µM. Same read-out and setting: the same measure for `Cc1nc2[nH]cc(/C=C/C(N)=O)c2cc1-c1cccnc1` [Example 330, (E)-3-(6-methyl-5-(pyridin-3-yl)-1H-pyrrolo[2,3-b]pyridin-3-yl)acrylamide]: no more than 1 µM.

Take `CC(C)COc1ccc(-c2cnc3[nH]cc(/C=C/C(N)=O)c3c2)cn1` [Example 325, (E)-3-(5-(6-isobutoxypyridin-3-yl)-1H-pyrrolo[2,3-b]pyridin-3-yl)acrylamide]: the IC50 at TAK1-TAB1 was no more than 1 µM.

With `CC(C)(O)c1cncc(-c2cnc3[nH]cc(/C=C/C(N)=O)c3c2)c1` [Example 311, (E)-3-(5-(5-(2-hydroxypropan-2-yl)pyridin-3-yl)-1H-pyrrolo[2,3-b]pyridin-3-yl)acrylamide], at TAK1-TAB1, the IC50 is no more than 1 µM.

With `NC(=O)/C=C/c1c[nH]c2ncc(-c3ccc(=O)n(CC4CC4)c3)cc12` [Example 328, (E)-3-(5-(1-(cyclopropyl-methyl)-6-oxo-1,6-dihydropyridin-3-yl)-1H-pyrrolo[2,3-b]pyridin-3-yl)acrylamide], the IC50 at TAK1-TAB1 is no more than 1 µM.

For the compound `NC(=O)/C=C/c1c[nH]c2ncc(-c3ccc(Oc4ccccc4)cc3)cc12` [Example 342, (E)-3-(5-(4-phenoxyphenyl)-1H-pyrrolo[2,3-b]pyridin-3-yl)acrylamide], the IC50 at TAK1-TAB1 is no more than 1 µM.

As for `C=CC(=O)Nc1c[nH]c2ncc(-c3ccccc3)cc12` [Example 236, N-(5-phenyl-1H-pyrrolo[2,3-b]pyridin-3-yl)acrylamide], on TAK1-TAB1, the IC50 is greater than 1 µM. On to `COc1cc(-c2cnc3[nH]cc(/C=C/C(N)=O)c3c2)cc(C(F)(F)F)c1` [Example 349, (E)-3-(5-(3-methoxy-5-(trifluoromethyl)phenyl)-1H-pyrrolo[2,3-b]pyridin-3-yl)acrylamide], for which, at TAK1-TAB1, the IC50 was no more than 1 µM.

For `CCC(=O)c1ccc(-c2cnc3[nH]cc(/C=C/C(N)=O)c3c2)c(C)c1` [Example 313, (E)-3-(5-(2-methyl-4-propionylphenyl)-1H-pyrrolo[2,3-b]pyridin-3-yl)acrylamide], the IC50 on TAK1-TAB1 is no more than 1 µM.
